Results: patent US6586389B1, “Cubilin protein, DNA sequences encoding cubilin and uses thereof” (Administrators of the Tulane Educational Fund, priority 1998, dated 2003)
Each block holds one substance with its values, some of them ahead of it.

Tests used:
[1] = system: renal brush border membrane; conditions: cited from earlier work
[2] = system: yolk sac epithelial cells (BN/MSV); test: Endocytosis of FITC-light chain by yolk sac cells; type: cell-based, rat; conditions: 30 min, FIG. 14A; antibody at 1:1,000 dilution
Procedure: The yolk sac epithelial cell line (BN/MSV) was derived from yolk sac teratocarcinoma induced by fetectomy and placental injection of mouse sarcoma virus (Sahali et al., 1988). When grown under conventional conditions in modified Eagle's medium, supplemented with 2.5 mM L-glutamine, 10% fetal calf serum, and an antibiotic cocktail (penicillin, streptomycin, and Fungizone), the cells form a domed monolayer and express abundant cubilin (Sahali et al., 1988).
Internalization experiments were conducted by exposing confluent yolk sac cells in 24-cell plates to […] FITC-conjugated light chain. These cells were selected for endocytosis experiments because cubilin expression is 100-fold greater than cultured proximal tubule cells (Sahali et al., 1988). […] This concentration is selected because it is 10-fold higher than the half-maximal inhibitory concentration of the antibody determined from the brush border binding inhibition experiments. […] Cells are then trypsininzed, fixed in 1% formaldehyde, and suspended in PBS, and FITC incorporated into each cell is read in a Becton-Dickinson flow cytometer as described previously. Endocytosis curves are generated by plotting fluorescence units corrected for background against time. […]

[3] = system: rat renal cortical intermicrovillar clefts; test: Endosomal fusion reconstituted in vitro (energy transfer); type: biochemical; set-up: dose or concentration left out as unconfirmed; conditions: membranes loaded with λ-light chains via homogenization buffer; n=8
Text: The λ_light chains were loaded into rat renal cortical intermicrovillar cleft at […] by addition to the homogenization buffer. Fusion reconstituted in vitro in light chain-loaded membranes was inhibited compared with albumin-loaded control membranes. Values are mean±standard error for n=8, p<0.05 by unpaired t-test.
Fusion of these light chain loaded membranes was compared to control membranes loaded with the same concentration of albumin. All fluorescence measurements were corrected per mg of protein, and fusion reconstituted in vitro in cuvettes (Hammond et al., 1994). Data are expressed as mean +standard error of the mean throughout the application. Statistical analysis was performed by analysis of variance and Bonferroni or Scheffe's post hoc comparison.
To test whether myeloma light chains are functionally important in membrane trafficking and fusion events, intermicrovillar clefts were loaded with light chains by adding it to the homogenization buffer (Hammond et al., 1994). Fusion reconstituted in vitro in cuvettes was assayed by energy transfer, and results were normalized per milligram protein (Hammond et al., 1994; Jo et al., 1995).

Cubilin [4] = molecular target: T1, Cubilin (Rattus norvegicus, UniProt O70244); test: Surface plasmon resonance analysis of light chain/cubilin interaction; type: binding; set-up: from tissue; host or cells: rat renal cortex (intermicrovillar clefts); conditions: cubilin 100 nM preincubated with κ-light chains (10 or 490 μM) or λ-light chains (10 μM)
Procedure: A sample of cubilin (100 nM) was incubated with κ-light chains (10 or 490 μM), or […] prior to injecting the sample over the κ-light chain surface. The binding of cubilin to the immobilized surfaces was reduced in the presence of κ- or λ-light chains in a dose-response fashion. Data are representative of experiments with 4 light chains on 3 chips. […] LC, light chains: RU, response units.
Intermicrovillar clefts prepared from renal cortices were biotinylated on the cytosolic facade using NHS-biotin (Winearls, 1995). Cubilin and the associated proteins were purified by immunoaffinity chromatography MAb 75 was coupled to CNBr-activated Sepharose 4B (Pharmacia, Saint Quentin en Yvelines, France) as previously described (Sahali et al., 1988; 1993). Protease inhibitors were added at all steps.
κ- or λ-light chains were immobilized via free amine groups to the dextran matrix of CM5 sensor chips activated by a 1/1 mixture of NHS and EDC. Unreacted sites were blocked with 1M ethanolamine, pH 8.5, (Jonsson et al., 1991; Sanders et al., 1988). The immobilization was conducted at 25° C. using 10 mM HEPES, 2 mM CaCl2, 150 mM NaCl, 0.005% NP-40, pH 7.4 as the flow buffer. Then 10 mM acetate pH 4.8 was used for electrostatic pre-concentration of the protein. […]

Rabbit megalin = test: Megalin-cubilin interaction analysis by surface plasmon resonance; type: binding
Procedure: Rabbit megalin was immobilized to a sensor chip and the on rates and off rates for the binding of cubilin was recorded by flow of 20 nM purified cubilin along the chip surface. For control, cubilin was subjected to a blank chip. […] The binding curves in the presence of 10 mM EDTA or after prebinding of RAP to megalin are also shown. […] By fitting the binding data to a one-binding-site model a Kd of 7 nM was measured.
Surface plasmon resonance measurements were performed on a BIAcore 2000 instrument (Pharmacia, Sweden). BIAcore sensor chips (type CM5, Pharmacia) were activated with 1:1 mixture of 0.2 M N-ethyl-N′-(3-dimethylaminopropyl) carbodiimide and 0.05 M N-hydroxysuccimine in water. Rabbit megalin was immobilized as described (Moestrup et al., 1996) at a concentration of 40 μg/ml in 10 mM sodium acetate, pH 4.5 and the remaining binding sites were blocked with 1 M ethanolamine, pH 8.5. The flow buffer was 10 mM Hepes, 150 mM NaCl and […], 1 mM EDTA, pH 7.4. The binding data were analyzed using the BIAevaluation program.
Bound radiolabel was released from the column by EDTA. Surface plasmon analysis (FIG. 10A) confirmed this binding. […] Megalin-bound cubilin was still capable of binding IF-B12 as shown by subjecting the megalin-chip to flow with IF-B12 after the binding of cubilin (FIG. 10B). Thus, the response after adding IF-B12 represents the formation of a megalin-cubilin-IF-B12 complex.

Cubilin [5] = molecular target: T1, Cubilin; test: Ligands for cubilin: competition with known ligands; type: binding; conditions: RAP vs IF-B12; haptoglobin vs light chains; gentamicin vs light chain
[6] = system: rat renal brush border membrane vesicles; test: Gentamicin competition with fluorescein-light chain binding to brush border membrane vesicles (flow cytometry); conditions: control 39.6±4.2, n=4
Procedure: Given the abundance of megalin on the renal brush border membrane, if megalin is a light chain receptor this would predict that small polybasic drugs, such as gentamicin, which are known ligands for megalin, should compete for light chain binding to renal brush border membrane vesicles. To test this, rat renal brush border membrane vesicles were incubated in fluorescein-conjugated light chains with various concentrations of gentamicin. After washing, fluorescein-light chain binding to the membranes was analyzed by flow cytometry (FIG. 16). Estimate of half maximal binding concentration of gentamicin between 60 and 70 μM was placed in the middle of the curve. Gentamicin competes with fluorescent light chain binding to renal brush border membranes in a dose-dependent manner (control FITC-light chain binding 39.6±4.2 arbitrary fluorescence units, 10 μM gentamicin 45.1±3.1, 100 μM gentamicin 8.9±33.8*, 1000 μM gentamicin 6.3±1.9*, n=4, *p<0.05).

[7] = molecular target: megalin in native membranes (rat renal brush-border membrane vesicles; rat yolk sac cells) (rat) (UniProt P98158); test: cell-based or functional assay
rabbit megalin (rabbit) [8] = test: SPR, RAP prebound to immobilized rabbit megalin; competitor cubilin in flow
rabbit megalin (rabbit) [9] = test: SPR (BIAcore 2000), rabbit megalin immobilized, 20 nM purified cubilin in flow, blank chip subtracted, one-binding-site fit

Sequence of RAP (Receptor related protein) (ligand) (P30533 35-357): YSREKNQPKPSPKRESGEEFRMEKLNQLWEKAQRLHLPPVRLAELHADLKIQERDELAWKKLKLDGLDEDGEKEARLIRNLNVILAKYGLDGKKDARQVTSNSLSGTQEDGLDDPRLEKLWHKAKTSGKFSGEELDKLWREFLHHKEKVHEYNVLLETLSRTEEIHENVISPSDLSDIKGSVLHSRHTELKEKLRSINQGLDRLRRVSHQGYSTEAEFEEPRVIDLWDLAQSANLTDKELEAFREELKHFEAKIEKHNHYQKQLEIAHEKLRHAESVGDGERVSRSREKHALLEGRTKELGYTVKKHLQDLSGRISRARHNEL
T1 sequence (O70244 33-3623): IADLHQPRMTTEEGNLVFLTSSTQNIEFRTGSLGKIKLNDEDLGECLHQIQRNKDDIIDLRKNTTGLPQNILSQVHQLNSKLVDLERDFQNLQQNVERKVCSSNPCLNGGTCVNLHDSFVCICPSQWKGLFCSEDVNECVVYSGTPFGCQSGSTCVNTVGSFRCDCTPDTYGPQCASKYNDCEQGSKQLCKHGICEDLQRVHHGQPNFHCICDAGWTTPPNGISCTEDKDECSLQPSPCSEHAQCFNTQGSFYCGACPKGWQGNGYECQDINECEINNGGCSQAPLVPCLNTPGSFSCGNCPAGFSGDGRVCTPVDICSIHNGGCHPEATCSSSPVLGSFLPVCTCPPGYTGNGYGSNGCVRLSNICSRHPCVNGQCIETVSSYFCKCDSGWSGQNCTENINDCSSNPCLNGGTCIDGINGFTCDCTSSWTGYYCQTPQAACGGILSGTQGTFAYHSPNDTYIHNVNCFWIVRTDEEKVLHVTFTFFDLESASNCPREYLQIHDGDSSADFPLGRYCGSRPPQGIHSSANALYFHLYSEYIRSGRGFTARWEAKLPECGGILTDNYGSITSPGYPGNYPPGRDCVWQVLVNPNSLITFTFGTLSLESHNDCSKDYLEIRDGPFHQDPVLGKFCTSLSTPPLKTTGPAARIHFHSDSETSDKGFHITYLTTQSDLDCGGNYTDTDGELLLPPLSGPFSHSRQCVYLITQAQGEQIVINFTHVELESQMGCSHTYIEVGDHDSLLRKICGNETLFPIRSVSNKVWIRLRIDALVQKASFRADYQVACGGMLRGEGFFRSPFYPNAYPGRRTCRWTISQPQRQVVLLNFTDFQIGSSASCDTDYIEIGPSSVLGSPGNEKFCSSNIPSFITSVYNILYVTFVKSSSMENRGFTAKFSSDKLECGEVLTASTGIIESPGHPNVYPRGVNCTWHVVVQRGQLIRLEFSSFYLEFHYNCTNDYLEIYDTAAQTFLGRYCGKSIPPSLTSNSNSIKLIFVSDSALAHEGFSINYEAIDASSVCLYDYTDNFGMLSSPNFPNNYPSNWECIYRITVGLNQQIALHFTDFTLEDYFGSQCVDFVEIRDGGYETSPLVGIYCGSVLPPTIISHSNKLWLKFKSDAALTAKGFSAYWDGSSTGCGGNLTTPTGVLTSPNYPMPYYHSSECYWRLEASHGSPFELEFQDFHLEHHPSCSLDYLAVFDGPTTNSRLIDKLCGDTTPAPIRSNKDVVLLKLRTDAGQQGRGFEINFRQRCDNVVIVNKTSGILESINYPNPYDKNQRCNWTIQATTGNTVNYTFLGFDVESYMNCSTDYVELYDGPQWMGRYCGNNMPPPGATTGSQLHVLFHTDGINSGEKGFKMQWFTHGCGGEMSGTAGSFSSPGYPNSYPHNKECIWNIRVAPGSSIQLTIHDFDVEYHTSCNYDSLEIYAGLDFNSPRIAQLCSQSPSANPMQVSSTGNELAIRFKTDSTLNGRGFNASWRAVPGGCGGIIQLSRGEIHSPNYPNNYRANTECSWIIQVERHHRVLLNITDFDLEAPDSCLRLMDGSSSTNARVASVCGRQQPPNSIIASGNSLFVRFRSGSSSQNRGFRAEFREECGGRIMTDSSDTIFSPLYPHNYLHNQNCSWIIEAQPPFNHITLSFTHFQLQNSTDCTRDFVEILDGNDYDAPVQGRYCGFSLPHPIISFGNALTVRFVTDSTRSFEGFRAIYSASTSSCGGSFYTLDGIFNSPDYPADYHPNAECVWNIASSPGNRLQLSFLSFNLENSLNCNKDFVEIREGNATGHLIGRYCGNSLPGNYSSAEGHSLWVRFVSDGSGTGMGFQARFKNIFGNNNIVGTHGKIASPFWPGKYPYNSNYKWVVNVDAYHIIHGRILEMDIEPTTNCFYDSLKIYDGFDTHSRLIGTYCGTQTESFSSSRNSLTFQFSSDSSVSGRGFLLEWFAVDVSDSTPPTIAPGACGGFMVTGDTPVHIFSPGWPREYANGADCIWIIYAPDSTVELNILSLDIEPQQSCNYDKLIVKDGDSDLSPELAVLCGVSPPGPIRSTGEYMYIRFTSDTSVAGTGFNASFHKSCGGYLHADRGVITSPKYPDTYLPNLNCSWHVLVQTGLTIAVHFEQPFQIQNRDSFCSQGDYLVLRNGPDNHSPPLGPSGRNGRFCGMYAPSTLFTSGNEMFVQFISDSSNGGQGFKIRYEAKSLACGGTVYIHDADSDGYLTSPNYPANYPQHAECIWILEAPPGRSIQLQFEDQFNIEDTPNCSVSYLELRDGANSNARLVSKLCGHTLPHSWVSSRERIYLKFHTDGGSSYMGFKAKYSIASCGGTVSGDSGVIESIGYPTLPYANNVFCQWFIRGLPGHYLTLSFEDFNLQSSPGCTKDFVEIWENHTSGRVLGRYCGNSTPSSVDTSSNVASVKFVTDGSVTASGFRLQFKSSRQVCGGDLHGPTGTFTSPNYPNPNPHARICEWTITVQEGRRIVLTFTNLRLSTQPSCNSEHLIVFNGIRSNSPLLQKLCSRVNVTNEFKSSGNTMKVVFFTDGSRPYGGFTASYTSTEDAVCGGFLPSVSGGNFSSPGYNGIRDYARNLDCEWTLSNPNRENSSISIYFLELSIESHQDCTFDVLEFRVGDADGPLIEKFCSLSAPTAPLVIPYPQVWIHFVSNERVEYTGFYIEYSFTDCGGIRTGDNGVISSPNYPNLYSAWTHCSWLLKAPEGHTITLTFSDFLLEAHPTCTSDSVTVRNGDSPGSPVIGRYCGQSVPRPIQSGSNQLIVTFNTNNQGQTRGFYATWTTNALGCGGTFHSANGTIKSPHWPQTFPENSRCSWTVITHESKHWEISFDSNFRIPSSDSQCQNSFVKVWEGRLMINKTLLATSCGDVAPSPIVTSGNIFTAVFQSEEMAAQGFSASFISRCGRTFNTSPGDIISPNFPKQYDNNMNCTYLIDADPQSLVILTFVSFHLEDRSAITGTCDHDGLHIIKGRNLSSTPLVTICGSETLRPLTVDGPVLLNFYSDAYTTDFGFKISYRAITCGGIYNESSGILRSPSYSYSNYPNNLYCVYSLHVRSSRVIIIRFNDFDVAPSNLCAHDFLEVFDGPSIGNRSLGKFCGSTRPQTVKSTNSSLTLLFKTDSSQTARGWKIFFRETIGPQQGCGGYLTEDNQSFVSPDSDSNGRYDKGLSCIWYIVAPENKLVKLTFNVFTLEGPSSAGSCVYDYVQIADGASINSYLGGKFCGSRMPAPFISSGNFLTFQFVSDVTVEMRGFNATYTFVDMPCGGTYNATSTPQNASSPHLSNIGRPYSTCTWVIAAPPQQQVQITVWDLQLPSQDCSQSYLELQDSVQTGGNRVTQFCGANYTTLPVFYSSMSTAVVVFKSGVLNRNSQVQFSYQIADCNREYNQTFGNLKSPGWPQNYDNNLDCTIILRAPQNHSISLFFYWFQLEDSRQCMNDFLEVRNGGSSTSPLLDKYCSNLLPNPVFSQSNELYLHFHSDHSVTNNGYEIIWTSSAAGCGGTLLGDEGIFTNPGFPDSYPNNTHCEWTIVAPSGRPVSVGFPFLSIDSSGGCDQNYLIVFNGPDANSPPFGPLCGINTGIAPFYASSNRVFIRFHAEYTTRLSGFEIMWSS
Sequence of cubilin (purified; species of origin not stated where used) (receptor) (O70244 33-3623): as above

Substance: myoglobin
Competition with light chain for brush border membrane binding [1]: competing

Substance: albumin: bovine serum albumin used as nonspecific protein control
Effect on FITC-light chain endocytosis [2]: no effect
Endosomal fusion [3]: 1584±314 arbitrary fluorescence units/mg protein
Effect of free protein on binding of cubilin to immobilized light chains (competition) (Cubilin [4]): neither competed with light chains, nor bound to cubilin

Substance: lysozyme
Competition with light chain for brush border membrane binding [1]: competing

Substance: cytochrome c: low molecular weight protein competing with light chain
Competition with light chain for brush border membrane binding [1]: competing

Substance: RAP (Receptor related protein) (ligand)
reduction of endocytosis of 125I-IF-B12 in cultured yolk sac cell [7]: 10 to 15%
reduction of cubilin binding to megalin (rabbit megalin (rabbit) [8]): 75%

Substance: cubilin (purified; species of origin not stated where used) (receptor)
Kd (rabbit megalin (rabbit) [9]): 7 nM

Further lines, results first:

Reduction of binding of cubilin to megalin (Rabbit megalin; RAP prebound to megalin): 75%
Competition between ligands for binding to cubilin (Cubilin [5]): does not inhibit
Substance: RAP: Receptor related protein; binds megalin and cubilin

FITC-light chain binding ([6]; 10 μM gentamicin): 45.1±3.1 arbitrary fluorescence units
FITC-light chain binding ([6]; 100 μM gentamicin): 8.9±33.8 arbitrary fluorescence units
FITC-light chain binding ([6]; 1000 μM gentamicin): 6.3±1.9 arbitrary fluorescence units
Competition between ligands for binding to cubilin (Cubilin [5]): directly interferes
Substance: gentamicin

Binding to megalin (control experiments) (Rabbit megalin; megalin chip): no binding
Substance: Intrinsic factor vitamin B12: intrinsic factor-vitamin B12 complexes

Kd (Rabbit megalin; binding data fitted to a one-binding-site model, 20 nM purified cubilin over immobilized rabbit megalin): 7 nM
Substance: cubilin: 460 kDa epithelial glycoprotein receptor for intrinsic factor-vitamin B12 complexes; rat sequence SEQ ID No. 2

Competition between ligands for binding to cubilin (Cubilin [5]): do not compete
Substance: haptoglobin: protein ligand for cubilin
